# Results reported in patent publication US20190269666A1, “COMBINATION THERAPY WITH MERESTINIB AND ANTI-PD-L1 OR ANTI-PD-1 INHIBITORS FOR USE IN THE TREATMENT OF CANCER” (Eli Lilly and Company, priority 2016, published 2019).
# Assays:
# [1] = tested on: EMT6 syngeneic mouse mammary carcinoma tumor model; assay: EMT6 syngeneic mouse mammary carcinoma tumor model; type: in vivo
# Source text: A syngeneic mouse tumor model is used to evaluate potential combination effect of merestinib and anti-PD-L1 antibody in the EMT6 model (Rockwell, S C, Kallman, R F, Fajardo, L F. Characteristics of a serially transplanted mouse mammary tumor and its tissue-culture-adpated derivative. J Nat Cancer Institute. 1972, 49:735-749). Anti-PD-L1 antibody surrogate (178G7, LSN3370181) (Eppihimer et al. Microcirculation 2002:9(2):133) is used in the mouse study.
# Female BALB/c mice (18-20 gm) from Envigo (Harlan Laboratories) are used for this study. Food and water are available ad libitum. Animals are acclimated for at least one week prior to any experimental manipulation. The study is performed in accordance with AALAC accredited institutional guidelines.
# Merestinib is formulated as a solution in 10% PEG 400 in 90% (20% Captisol in H2O) once weekly. Anti-PD-L1 antibody (LSN3370181) is formulated in PBS (phosphate buffered saline).
# EMT6 cells (from internal in vivo pharmacology cell culture group lot EMT6-3184882) are used for implantation. Approximately 5×10^5 cells in HBSS are implanted subcutaneously into the right hind flank of the animal under anesthesia. Prior to commencing drug administration, animals are randomized to treatment groups based on body weight.
# There are 4 arms in this study with 15 animals per group: 1) vehicle control; 2) merestinib 12 mg/kg QD×21, PO; 3) LSN3370181 (anti-PD-L1) 0.5 mg/mouse once weekly for 3 weeks via IP; 4) combination merestinib+anti-PD-L1 antibody; combination therapies follow the same dosing schedule as the monotherapies. Treatment is initiated on Day 6 post tumor cell implantation and continued for 21 days (final dose administered on Day 26). Tumor volumes and body weight are measured bi-weekly. Tumor volume is estimated by using the formula: v=l×w^2×0.536 where l=larger of measured diameter and w=smaller of perpendicular diameter. Animals are sacrificed using CO2 and cervical dislocation.
# On Day 20 post tumor cell implant, 5 animals from each group are taken down for harvesting of spleens and tumors for mechanism of action (MOA) studies (FACs analysis, gene expression). The remaining animals continue with treatment as described above. At the end of the dosing period (Day 27 post tumor cell implant), animals are observed for tumor growth for 43 days. Animals are removed from study when tumor burden reached or exceeded 2500 mm^3. To assess immune memory, on Day 70 post tumor cell implant, animals that remained on study (complete responders and partial responders) are rechallenged with new implant of EMT6 cells on the contralateral side and observed for tumor growth for 15 days.
# Tumor volume is transformed to the log scale to equalize variance across time and treatment groups. The log volume data are analyzed with a two-way repeated measures analysis of variance by time and treatment using the MIXED procedures in SAS software (Version 9.3). The correlation model for the repeated measures is spatial power. Treated groups are compared to the control group at each time point. The MIXED procedure is also used separately for each treatment group to calculate least squares means and standard errors at each time point. Both analyses account for the autocorrelation within each animal and the loss of data that occurs when animals are removed or lost before end of study.
# Bayesian ordinal logistic regression analysis is used to obtain the posterior probability of the combination treatment effect for synergy, additivity or antagonism was conducted on Day 69 for this study. Each animal was classified into one of 3 response categories, based on its Day 69 tumor volume and by comparison to the vehicle data: I) Non-responder (NR), II) Partial Responder (PR), III) Complete Responder (CR). CR is defined by tumor volume […] at Day 69. NR is defined as unperturbed exponential growth, similar to vehicle animals. […]
# immune cells = assay: Flow cytometry analysis of immune cells in spleens and tumors; type: in vivo, mouse; details: compared to concurrent combination or vehicle control
# Experimental: Spleens and tumors are collected from a subset of animals on the indicated study day(s) and processed for FACS analysis by homogenizing tissues through a tissue strainer to prepare a single cell suspension in culture medium. Single cell suspensions are then stained with fluorescently-labeled antibodies to identify immune markers including: CD3, CD4, CD8, CD11b, CD19, CD45, FoxP3, PD-L1, F4/80 and a fixable viability dye. Cells are analyzed using a BD LSR II flow cytometer. Data are collected and analyzed using Flowjo (Tree Star, Inc.) to measure the percentage of total live lymphocytes (Live, CD45+) in each tissue. Immune cell subsets are then measured as a percentage of CD45 cells, or as a percentage of the immediate parent population.
structure (smiles),measurement,setting,value
"Cc1ccc(C(=O)Nc2ccc(Oc3cc4cnn(C)c4cc3-c3cn[nH]c3)c(F)c2)c(=O)n1-c1ccc(F)cc1 [merestinib, N-(3-fluoro-4-(1-methyl-6-(1H-pyrazol-4-yl)-1H-indazol-5-yloxy)phenyl)-1-(4-fluorophenyl)-6-methyl-2-oxo-1,2-dihydropyridine-3-carboxamide]",Regression (%),[1]; Day 31,No tumor regression
same,T/C %,[1]; Day 31,35.2%
same,Day 69 Treatment Responders NR (Non-responder),[1]; animals of 10/group,10
same,Day 69 Treatment Responders PR (Partial Responder),[1]; animals of 10/group,0
same,Day 69 Treatment Responders CR (Complete Responder),"[1]; animals of 10/group, tumor volume ≤25 mm^3",0
same,single agent anti-tumor activity,"[1]; mouse, in vivo",weak single agent anti-tumor activity
same,change in immune cells by flow cytometry,immune cells,no significant change
